Patent US20050170360A1, “Variant neuronal nicotinic alpha-7 receptor and methods of use” (priority 2004, published 2005)
Read-outs that look alike come from different tables or passages of the source.

How the values were obtained:
rat α7 TM2 T6'S = rat α7 TM2 T6'S (Rattus norvegicus, UniProt Q05941, T267S); assay: Two-electrode voltage-clamp recording of Xenopus oocytes expressing α7 TM2 T6'S mutant
Description: Expression in Xenopus oocvtes. Mature (>9 cm) female Xenopus laevis African toads (Nasco, Ft. Atkinson, Wis.) were used as a source of oocytes. Prior to surgery, frogs were anesthetized by placing the animal in a 2 g/L solution of MS222 (3-aminobenzoic acid ethyl ester). Oocytes were removed from an incision made in the abdomen.
(§3) Subsequently, stage 5 oocytes were isolated and injected with 50 nl each of a mixture of the appropriate subunit cRNAs following harvest. Recordings were made 3 to 21 days after injection depending on the cRNAs being tested.
(§4) Voltage-clamp recording of whole oocate responses. Data were obtained by means of two-electrode voltage-clamp recording. […] This extracellular solution was used for all experiments unless otherwise noted.
(§5) Bath solution and drug applications are applied through a linear perfusion system to oocytes placed in Lucite chamber with a total volume of 0.5 ml. Drug delivery involves pre-loading a 1.8 ml length of tubing at the terminus of the perfusion system, while a Mariotte flask filled with Ringer's solution is used to maintain constant perfusion. Applications of drug solutions are then synchronized with acquisition. […] In addition, some oocyte recordings were made using a beta version of the OpusXpress 6000A (Axon Instruments, Union City, Calif.). OpusXpress is an integrated system that provides automated impalement and voltage clamp, which in our case permitted the study of four oocytes in parallel. Cells were automatically perfused with bath solution, and agonist solutions were delivered from a 96-well compound plate. In experiments using the OpusXpress system, the voltage and current electrodes were filled with 3 M KCl. In all experiments, bath flow rates were set at 6 ml/minute.
(§6) Experimental protocols and analysis of data from Xenopus oocytes. Current responses to drug application were studied under two-electrode voltage clamp at a holding potential of −50 mV unless otherwise noted (−60 mV for the OpusXpress system). Holding currents immediately prior to agonist application were subtracted from measurements of the peak response to agonist. All drug applications were separated by a wash period of 5 minutes unless otherwise noted. […] Means and standard errors (SEM) were calculated from the normalized responses of at least four oocytes for each experimental concentration.
(§7) For concentration-response relations, data were plotted using Kaleidagraph 3.0.2 (Abelbeck Software; Reading, Pa.), and curves were generated using the Hill equation: [formula] where Imax denotes the maximal response for a particular agonist/subunit combination, and n represents the Hill coefficient. Imax, n, and the EC50 were all unconstrained for the fitting procedures.
(§8) Calculations of peak amplitudes and net charge were made using pClamp either during acquisition or during subsequent Clampfit analysis.

rat α7 TM2 T6'F = biological target: T1, rat α7 TM2 T6'F (Rattus norvegicus, UniProt Q05941, T267F); assay: Two-electrode voltage-clamp recording of Xenopus oocytes expressing α7 TM2 T6'F mutant; format: cell-based
T1 construct: expressed in transfected cells; host or cells: Xenopus laevis oocytes injected with cRNA
Text: Site-directed mutagenesis.
(§1) Expression in Xenopus oocvtes.
(§2) Voltage-clamp recording of whole oocate responses.

wild-type α7 nAChR = wild-type α7 nAChR (Rattus norvegicus, UniProt Q05941); assay: Two-electrode voltage-clamp recording of Xenopus oocytes expressing wild-type α7
Description: Mature (>9 cm) female Xenopus laevis African toads (Nasco, Ft. Atkinson, Wis.) were used as a source of oocytes. Prior to surgery, frogs were anesthetized by placing the animal in a 2 g/L solution of MS222 (3-aminobenzoic acid ethyl ester). Oocytes were removed from an incision made in the abdomen.
as §3, §4, §5, §6, §7, §8

muscle-type receptors = biological target: T2, muscle-type receptors (Mus musculus, UniProt P02716+P04756); assay: Two-electrode voltage-clamp recording of Xenopus oocytes expressing muscle-type receptors; format: cell-based
T2 construct: expressed in transfected cells; host or cells: Xenopus laevis oocytes injected with cRNA
Text: as §1, §2

L247T mutant = L247T mutant (UniProt P22770, L270T, species not given); format: cell-based; settings: for type of activity (agonist / antagonist): L247T

Structure (SMILES)	type of activity (agonist / antagonist / potentiation) (rat α7 TM2 T6'S; T6'S)	type of activity (agonist / antagonist) (L247T mutant)	type of activity (agonist / antagonist / potentiation) (wild-type α7 nAChR; Wild type)	EC50 (rat α7 TM2 T6'S)	% agonist (rat α7 TM2 T6'S; T6'S)	EC50 (wild-type α7 nAChR)	% agonist (wild-type α7 nAChR; Wild type)	other results
C[N+](C)(C)CCOC(=O)CCC(=O)OCC[N+](C)(C)C [succinylcholine]	–	–	–	–	–	–	–	activation of receptor (rat α7 TM2 T6'S): virtually no response; concentration-response function (rat α7 TM2 T6'S; full range of concentrations): respond poorly; activation of receptor (rat α7 TM2 T6'F; 100 μM succinylcholine): dramatic increase in sensitivity; concentration-response function (rat α7 TM2 T6'F; full range of concentrations): relatively potent, full agonist; activation of receptor (wild-type α7 nAChR): relatively ineffective; concentration-response function (wild-type α7 nAChR; full range of concentrations): respond poorly; type of activity (muscle-type receptors): Selective Agonist
NCCc1c[nH]c2ccc(O)cc12 [5-HT]	antagonist	agonist	antagonist	–	–	–	–	–
[Zn+2] [Zinc]	antagonist	agonist	antagonist	–	–	–	–	–
COc1cc2c3cc1Oc1cc(ccc1O)C[C@@H]1c4c(cc(OC)c(O)c4Oc4ccc(cc4)C[C@@H]3N(C)CC2)CC[N+]1(C)C [Tubocurarine]	antagonist	agonist	antagonist	–	–	–	–	–
Oc1ccc2[nH]ccc2c1 [5HI, 5-hydroxy-indole]	does not potentiate	–	potentiates	–	–	–	–	–
C[N+](C)(C)CCCCCC[N+](C)(C)C [Hexamethonium]	antagonist	agonist	antagonist	–	–	–	–	–
COc1ccc(/C=C2\CCCN=C2c2cccnc2)c(OC)c1 [GTS-21 (DMXB)]	–	full	–	3 µM	12%	5 µM	32%	–
CNCC/C=C/c1cccnc1 [TC-2403]	–	–	–	400 µM	18% agonist	240 µM	16%	–
O=c1cccc2n1C[C@@H]1CNC[C@H]2C1 [Cytisine]	–	–	–	43 µM	–	13 µM	–	% agonist (rat α7 TM2 T6'S): 80% agonist 43 μM; % agonist (wild-type α7 nAChR): 73% agonist 13 μM
C[N+](C)(C)CCO [Choline]	–	–	–	2000 µM	95% agonist 2 mM	300 µM	100% agonist 300 μM	EC50 (rat α7 TM2 T6'S; EC50, T6'S column): ~360 µM; EC50 (L247T mutant): 12 µM
O=C1NCC2(CN3CCC2CC3)O1 (centres unmarked) [AR-R17779]	–	–	–	–	90% agonist 30 μM	–	78% agonist 10 μM	–
CN1[C@@H]2CC[C@H]1C[C@@H](OC(=O)c1c[nH]c3ccccc13)C2 [Tropisetron]	–	–	–	–	30%	–	38%	–
